Experiments:
Format in all cases: in vivo
corn (Zea mays) [1] = assay: Test B postemergence; conditions: 13 to 15 days
How it was run: (§1)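 Ratings on a 0 to 100 visual scale (100 complete control) compare treated plants with controls 13 to 15 days after application. Treatments were pre- or postemergence sprays of compound in non-phytotoxic solvent with surfactant.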

[2] = test system: wheat (Triticum aestivum); assay: Test B postemergence; conditions: 13 to 15 days
How it was run: as §1

wild oat (Avena fatua) = assay: Test B postemergence; conditions: 13 to 15 days
How it was run: as §1

[3] = test system: barnyardgrass (Echinochloa crus-galli); assay: Test B postemergence; conditions: 13 to 15 days
How it was run: as §1

Nightshade [4] = assay: Test C preemergence; conditions: Rate 250 g/ha, visual evaluation after 12 to 14 days
rice (Oryza saliva) = assay: Test C flooded paddy test; conditions: for Rice plant response rating: scale 0 to 100, 0 no effect, 100 complete control
How it was run: (§2)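 Plants were grown to the 2-leaf stage under flooded paddy conditions and treated. They were then kept in a greenhouse for 12 to 14 days and visually rated against untreated controls on a 0–100 scale, where 0 is no effect and 100 is complete control.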

[5] = test system: duck salad (Heteranthera limosa); assay: Test C flooded paddy test; conditions: for Ducksalad plant response rating: scale 0 to 100, 0 no effect, 100 complete control
How it was run: as §2

[6] = test system: barnyardgrass (Echinochloa crus-galli); assay: Test C flooded paddy test; conditions: for Barnyardgrass plant response rating: scale 0 to 100, 0 no effect, 100 complete control
How it was run: as §2

[7] = test system: smallflower flatsedge (Cyperus difformis); assay: Test C flooded paddy test; conditions: for Flatsedge plant response rating: Flooded Paddy, scale 0 to 100, 0 no effect, 100 complete control; for Plant response rating, Flatsedge: flooded paddy test, scale 0 to 100 (0 no effect, 100 complete control)
How it was run: as §2

[8] = test system: johnsongrass (Sorghum halepense); assay: Test C preemergence; conditions: for Plant response rating (0 to 100), Johnsongrass: Rate 250 g/ha, visual evaluation after 12 to 14 days
How it was run: (§3)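 Formulation: non-phytotoxic solvent mix incl. surfactant. Pre: applied right after planting. Post: 1–4-leaf seedlings. Read: visual 0–100, day 12–14, greenhouse.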

[9] = test system: lambsquarters (Chenopodium album); assay: Test C preemergence; conditions: for Plant response rating (0 to 100), Lambsquarters: Rate 250 g/ha, visual evaluation after 12 to 14 days
How it was run: as §3

[10] = test system: pigweed (Amaranthus retroflexus); assay: Test C preemergence; conditions: for Plant response rating (0 to 100), Pigweed: Rate 250 g/ha, visual evaluation after 12 to 14 days
How it was run: as §3

[11] = test system: woolly cupgrass (Eriochloa villosa); assay: Test C preemergence; conditions: for Plant response rating (0 to 100), Cupgrass, Woolly: Rate 250 g/ha, visual evaluation after 12 to 14 days
How it was run: as §3

soybean (Glycine max) = assay: Test C preemergence; conditions: for Plant response rating (0 to 100), Soybean: Rate 250 g/ha, visual evaluation after 12 to 14 days
How it was run: as §3

[12] = test system: yellow nutsedge (Cyperus esculentus); assay: Test C preemergence; conditions: for Plant response rating (0 to 100), Nutsedge: Rate 250 g/ha, visual evaluation after 12 to 14 days
How it was run: as §3

corn (Zea mays) [13] = assay: Test C preemergence; conditions: for Plant response rating (0 to 100), Corn: Rate 250 g/ha, visual evaluation after 12 to 14 days
How it was run: as §3

kochia (Kochia scoparia) = assay: Test C preemergence; conditions: for Plant response rating (0 to 100), Kochia: Rate 250 g/ha, visual evaluation after 12 to 14 days
How it was run: as §3

Nightshade [14] = assay: Test C preemergence
Sunflower = assay: Test C preemergence; conditions: Rate 125 g/ha, scale 0 to 100, 0 no effect, 100 complete control
[15] = Rate 125 g/ha, scale 0 (no effect) to 100 (complete control)
[16] = Rate 500 g/ha, scale 0 to 100, 0 is no effect, 100 is complete control
[17] = flooded paddy test, Rate 62 g/ha, scale 0 to 100 (0 no effect, 100 complete control)
[18] = flooded paddy test, Rate 125 g/ha, scale 0 to 100 (0 no effect, 100 complete control)
[19] = Preemergence, Rate 500 g/ha, scale 0 to 100
[20] = Rate 62 g/ha, scale 0 to 100, 0 no effect, 100 complete control
[21] = preemergence, Rate 125 g/ha, scale 0 to 100, 0 no effect, 100 complete control
[22] = Rate 125 g/ha, scale 0 to 100, 0 no effect, 100 complete control
[23] = Flooded Paddy, Rate 500 g/ha, scale 0 to 100
[24] = Flooded Paddy, Rate 1000 g/ha, scale 0 to 100

O=C1C(n2ccc(C3CCC3)n2)SCN1c1cccc(OC(F)(F)F)c1 (stereo not drawn) [Compound 38]
Plant response rating, Corn (corn (Zea mays) [1]; [15]): 0 | Plant response rating, Corn (corn (Zea mays) [1]; [16]): 0 | Plant response rating, Wheat [2, 15]: 0 | Plant response rating, Wheat [2, 16]: 0 | Plant response rating, Wild Oat (wild oat (Avena fatua); [15]): 0 | Plant response rating, Wild Oat (wild oat (Avena fatua); [16]): 0 | Plant response rating, Barnyardgrass [3, 15]: 100 | Plant response rating, Barnyardgrass [3, 16]: 100 | Plant response rating (0 to 100), Nightshade (Nightshade [4]): 60 | Rice plant response rating (rice (Oryza saliva); Flooded Paddy, Rate 250 g/ha): 50 | Rice plant response rating (rice (Oryza saliva); Flooded Paddy, Rate 500 g/ha): 80 | Plant response rating, Rice (rice (Oryza saliva); [17]): 20 | Plant response rating, Rice (rice (Oryza saliva); [18]): 30 | Ducksalad plant response rating ([5]; Flooded Paddy, Rate 250 g/ha): 90 | Ducksalad plant response rating ([5]; Flooded Paddy, Rate 500 g/ha): 80 | Plant response rating, Ducksalad [5, 17]: 50 | Plant response rating, Ducksalad [5, 18]: 90 | Barnyardgrass plant response rating ([6]; Flooded Paddy, Rate 250 g/ha): 100 | Barnyardgrass plant response rating ([6]; Flooded Paddy, Rate 500 g/ha): 100 | Plant response rating, Barnyardgrass [6, 17]: 100 | Plant response rating, Barnyardgrass [6, 18]: 100 | Flatsedge plant response rating ([7]; Rate 250 g/ha): 100 | Flatsedge plant response rating ([7]; Rate 500 g/ha): 100 | Plant response rating, Flatsedge ([7]; Rate 62 g/ha): 100 | Plant response rating, Flatsedge ([7]; Rate 125 g/ha): 100 | Plant response rating, Johnsongrass [8, 19]: 90 | Plant response rating, Johnsongrass [8, 20]: 40 | Plant response rating (0 to 100), Johnsongrass ([8]; preemergence): 90 | Plant response rating, Johnsongrass [8, 21]: 50 | Plant response rating, Lambsquarters [9, 19]: 100 | Plant response rating, Lambsquarters [9, 20]: 90 | Plant response rating (0 to 100), Lambsquarters ([9]; preemergence): 100 | Plant response rating, Lambsquarters [9, 21]: 100 | Plant response rating, Pigweed [10, 19]: 30 | Plant response rating, Pigweed [10, 20]: 0 | Plant response rating (0 to 100), Pigweed ([10]; preemergence): 0 | Plant response rating, Pigweed [10, 21]: 0 | Plant response rating, Cupgrass, Woolly [11, 19]: 90 | Plant response rating, Cupgrass, Woolly [11, 20]: 0 | Plant response rating (0 to 100), Cupgrass, Woolly ([11]; preemergence): 0 | Plant response rating, Cupgrass, Woolly [11, 21]: 0 | Plant response rating, Soybean (soybean (Glycine max); [19]): 0 | Plant response rating, Soybean (soybean (Glycine max); [20]): 0 | Plant response rating (0 to 100), Soybean (soybean (Glycine max); preemergence): 0 | Plant response rating, Soybean (soybean (Glycine max); [21]): 0 | Plant response rating, Nutsedge [12, 19]: 70 | Plant response rating, Nutsedge [12, 20]: 0 | Plant response rating (0 to 100), Nutsedge ([12]; preemergence): 0 | Plant response rating, Nutsedge [12, 21]: 0 | Plant response rating, Corn (corn (Zea mays) [13]; [19]): 0 | Plant response rating, Corn (corn (Zea mays) [13]; [20]): 0 | Plant response rating (0 to 100), Corn (corn (Zea mays) [13]; preemergence): 0 | Plant response rating, Corn (corn (Zea mays) [13]; [21]): 0 | Plant response rating, Kochia (kochia (Kochia scoparia); [19]): 100 | Plant response rating, Kochia (kochia (Kochia scoparia); [20]): 30 | Plant response rating (0 to 100), Kochia (kochia (Kochia scoparia); preemergence): 90 | Plant response rating, Kochia (kochia (Kochia scoparia); [21]): 70 | Plant response rating, Nightshade (Nightshade [14]; [20]): 0 | Plant response rating, Nightshade (Nightshade [14]; [22]): 0 | Plant response rating, Nightshade (Nightshade [14]; Rate 500 g/ha, scale 0 to 100): 90 | Plant response rating, Sunflower (Sunflower): 0

O=C1C(n2ccc(C3CC3)n2)CCN1c1cccc(C(F)(F)F)c1 (stereo not drawn) [Compound 8]
Plant response rating, Corn (corn (Zea mays) [1]; [15]): 0 | Plant response rating, Corn (corn (Zea mays) [1]; [16]): 0 | Plant response rating, Wheat [2, 15]: 0 | Plant response rating, Wheat [2, 16]: 0 | Plant response rating, Wild Oat (wild oat (Avena fatua); [15]): 0 | Plant response rating, Wild Oat (wild oat (Avena fatua); [16]): 0 | Plant response rating, Barnyardgrass [3, 15]: 0 | Plant response rating, Barnyardgrass [3, 16]: 0 | Plant response rating (0 to 100), Nightshade (Nightshade [4]): 0 | Plant response rating, Rice (rice (Oryza saliva); [23]): 60 | Plant response rating, Rice (rice (Oryza saliva); [24]): 80 | Rice plant response rating (rice (Oryza saliva); Flooded Paddy, Rate 250 g/ha): 60 | Plant response rating, Rice (rice (Oryza saliva); [17]): 0 | Plant response rating, Rice (rice (Oryza saliva); [18]): 0 | Plant response rating, Ducksalad [5, 23]: 70 | Plant response rating, Ducksalad [5, 24]: 100 | Ducksalad plant response rating ([5]; Flooded Paddy, Rate 250 g/ha): 40 | Plant response rating, Ducksalad [5, 17]: 0 | Plant response rating, Ducksalad [5, 18]: 20 | Plant response rating, Barnyardgrass [6, 23]: 70 | Plant response rating, Barnyardgrass [6, 24]: 100 | Barnyardgrass plant response rating ([6]; Flooded Paddy, Rate 250 g/ha): 40 | Plant response rating, Barnyardgrass [6, 17]: 0 | Plant response rating, Barnyardgrass [6, 18]: 0 | Flatsedge plant response rating ([7]; Rate 250 g/ha): 100 | Flatsedge plant response rating ([7]; Rate 500 g/ha): 100 | Flatsedge plant response rating ([7]; rate of this column group stands in head line r653, not shown (group before Rate 500 g/ha)): 100 | Plant response rating, Flatsedge ([7]; Rate 62 g/ha): 30 | Plant response rating, Flatsedge ([7]; Rate 125 g/ha): 90 | Plant response rating, Johnsongrass [8, 19]: 0 | Plant response rating, Johnsongrass [8, 20]: 0 | Plant response rating (0 to 100), Johnsongrass ([8]; preemergence): 0 | Plant response rating, Johnsongrass [8, 21]: 0 | Plant response rating, Lambsquarters [9, 19]: 100 | Plant response rating, Lambsquarters [9, 20]: 100 | Plant response rating (0 to 100), Lambsquarters ([9]; preemergence): 100 | Plant response rating, Lambsquarters [9, 21]: 100 | Plant response rating, Pigweed [10, 19]: 100 | Plant response rating, Pigweed [10, 20]: 20 | Plant response rating (0 to 100), Pigweed ([10]; preemergence): 100 | Plant response rating, Pigweed [10, 21]: 80 | Plant response rating, Cupgrass, Woolly [11, 19]: 80 | Plant response rating, Cupgrass, Woolly [11, 20]: 0 | Plant response rating (0 to 100), Cupgrass, Woolly ([11]; preemergence): 50 | Plant response rating, Cupgrass, Woolly [11, 21]: 40 | Plant response rating, Soybean (soybean (Glycine max); [19]): 20 | Plant response rating, Soybean (soybean (Glycine max); [20]): 0 | Plant response rating (0 to 100), Soybean (soybean (Glycine max); preemergence): 20 | Plant response rating, Soybean (soybean (Glycine max); [21]): 0 | Plant response rating, Nutsedge [12, 19]: 0 | Plant response rating, Nutsedge [12, 20]: 0 | Plant response rating (0 to 100), Nutsedge ([12]; preemergence): 0 | Plant response rating, Nutsedge [12, 21]: 0 | Plant response rating, Corn (corn (Zea mays) [13]; [19]): 0 | Plant response rating, Corn (corn (Zea mays) [13]; [20]): 0 | Plant response rating (0 to 100), Corn (corn (Zea mays) [13]; preemergence): 0 | Plant response rating, Corn (corn (Zea mays) [13]; [21]): 0 | Plant response rating, Kochia (kochia (Kochia scoparia); [19]): 70 | Plant response rating, Kochia (kochia (Kochia scoparia); [20]): 0 | Plant response rating (0 to 100), Kochia (kochia (Kochia scoparia); preemergence): 20 | Plant response rating, Kochia (kochia (Kochia scoparia); [21]): 0 | Plant response rating, Nightshade (Nightshade [14]; [20]): 0 | Plant response rating, Nightshade (Nightshade [14]; [22]): 0 | Plant response rating, Nightshade (Nightshade [14]; Rate 500 g/ha, scale 0 to 100): 0 | Plant response rating, Sunflower (Sunflower): 0
